Reference: patent US8617563B2, “Antichlamydial agents” (Duke University, priority 2011, dated 2013)

How the values were obtained:
CPAF [1] = target: T1, CPAF (Chlamydia trachomatis serovar D, UniProt O84866); format: biochemical, C. trachomatis; design: 6xHis; made in house; host or cells: E. coli (pET30b); settings: GST-tagged chlamydial substrates, 37° C., 20 min
Method: FIG. 4 depicts (A) Recombinant Chlamydia ORFs were tested for sensitivity to host and bacterial derived proteases. […] Purified his-tagged CPAF was incubated with GST-tagged chlamydial substrates at 37° C. for 20 min with increasing amounts of lactacystin. Cleavage products were run on an SDS PAGE gel and visualized with Coomassie blue staining. (C) Schematic summary of CPAF targets. […] Membranes from Chlamydia-infected HeLa cells were harvested and purified at 0, 24, 36 and 48 hours post-infection, and the abundance of the chlamydial proteins Ct005, IncC and IncD were monitored with specific antibodies. Na/K ATPase and IncG served as host and bacterial-loading controls, respectively.
(§1) Cytosols from Chlamydia-infected HeLa cells (40 hrs) or recombinant his-tagged CPAF were pre-treated with rabbit polyclonal anti-CPAF or anti-IncA antisera, and incubated with GST-tagged Chlamydia proteins for 20 min at 37° C. […] Three example proteins shown include a type-III secretion (T3S) core component (CdsQ) a T3S chaperone (Mcsc) and a T3S needle component (Ct584). Processing of recombinant proteins in A-B were monitored by immunoblot analysis with specific antibodies. (C) Protease inhibitor profile of recombinant CPAF. Example shown for the chlamydial substrate GST-IncC. Degradation products were visualized by SDS-PAGE followed by staining with Coomassie blue. […]
Uninfected and HeLa cells pre-infected with L2 for 30 hrs were treated with inhibitory peptides and infected with EBs for 10 min Tarp translocation was indirectly visualized with an anti-phosphotyrosine antibody (A) and quantified by counting 50 separate cells (B). The stability of newly translocated Tarp was assessed by infecting cells as in (A) but with S^35-labeled EBs, followed by sequential immunoprecipitation of Tarp and MOMP and Phosphoimager analysis of precipitated material (C (I-IV)). […] IC50 values were determined by assessing CPAF cleavage of an Abz-tagged CPAF substrate (SEQ ID NO:9) by HPLC. […] Extracellular bacteria were determined. […] The number of internalized EBs was quantified per cell (H). […]
Target sequence in this assay (O84866 1-234, added parts left off): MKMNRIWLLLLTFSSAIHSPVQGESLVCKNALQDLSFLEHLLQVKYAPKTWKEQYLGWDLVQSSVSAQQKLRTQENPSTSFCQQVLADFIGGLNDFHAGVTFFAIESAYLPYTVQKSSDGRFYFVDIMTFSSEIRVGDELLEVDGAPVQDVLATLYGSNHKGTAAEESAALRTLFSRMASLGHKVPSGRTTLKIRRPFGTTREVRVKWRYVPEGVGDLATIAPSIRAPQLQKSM
Target sequence in this assay (O84866 276-601): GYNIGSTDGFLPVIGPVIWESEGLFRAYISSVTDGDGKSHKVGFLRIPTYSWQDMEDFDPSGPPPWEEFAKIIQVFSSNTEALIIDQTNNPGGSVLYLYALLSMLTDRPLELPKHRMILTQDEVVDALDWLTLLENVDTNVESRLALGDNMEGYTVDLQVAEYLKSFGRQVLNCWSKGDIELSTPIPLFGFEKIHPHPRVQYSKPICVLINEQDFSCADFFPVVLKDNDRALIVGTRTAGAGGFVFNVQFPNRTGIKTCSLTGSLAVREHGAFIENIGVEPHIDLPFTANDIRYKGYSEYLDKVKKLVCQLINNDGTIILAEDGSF

CPAF [2] = target: T1, CPAF; assay: HPLC-based CPAF inhibition assay with Abz-tagged model substrate (SEQ ID NO:9); format: biochemical, C. trachomatis; design: 6xHis; made in house; host or cells: E. coli BL21 (DE3), plasmid pET30b-CPAF; settings: CPAF 62.5 nM, substrate SEQ ID NO:9 0.5 mM, inhibitor 0-240 μM
Method: FIG. 1 depicts the results of HPLC-based CPAF inhibition assays using a model CPAF substrate (SEQ ID NO:9) to compare inhibition of CPAF protease activity by SEQ ID NO:7, SEQ ID NO:2, and lactacystin. HPLC-based assays were performed in a final volume of 100 μL containing assay buffer, CPAF (62.5 nM), substrate 1 (0.5 mM), and varying concentrations of inhibitor (0-240 μM).
HPLC-based assays comprised an Abz-tagged model CPAF substrate (SEQ ID NO:9) and were performed in a final volume of 100 μL containing 150 mM NaCl, 50 mM Tris pH 7.50, purified CPAF (62.5 nM), fluorescent-tagged model CPAF substrate (0.5 mM), and varying concentrations of each candidate compound (0-240 μM). IC50 values were determined by pre-incubating CPAF with varying concentrations of candidate compound for 5 min at room temperature prior to initiation of the reaction via the addition of model CPAF substrate. Reactions were allowed to proceed for 90 seconds at 25° C., followed by removal of 80 μL aliquots and quenching by the addition of 1.2 M HCl (40 μL). Data were converted to percent activity relative to a control reaction without candidate compound and fit to the following equation using GraFit v6.0, where [I] is the concentration of candidate compound and s is a slope factor: […]
Target sequence in this assay (O84866 276-601): as above
Target sequence in this assay (O84866 1-234, added parts left off): as the sequence (O84866 1-234, added parts left off) above

CPAF [3] = target: T1, CPAF; design: endogenous in cells; host or cells: HeLa cells infected with C. trachomatis LGV-L2 434/Bu (the bacteria make the protein and secrete it into the host cytosol); settings: C. trachomatis LGV-L2 434-infected HeLa cells; Kumar et al. 2008; cited from earlier work
Target sequence in this assay (O84866 276-601): as the sequence (O84866 276-601) above
Target sequence in this assay (O84866 24-234): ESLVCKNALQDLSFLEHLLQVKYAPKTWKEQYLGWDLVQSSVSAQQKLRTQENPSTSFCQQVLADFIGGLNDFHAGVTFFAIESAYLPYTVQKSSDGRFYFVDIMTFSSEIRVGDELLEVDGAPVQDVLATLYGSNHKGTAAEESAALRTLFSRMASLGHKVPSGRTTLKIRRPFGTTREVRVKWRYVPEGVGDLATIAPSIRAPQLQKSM

CPAF [4] = target: T1, CPAF; format: biochemical, C. trachomatis; design: endogenous in cells; host or cells: HeLa cells infected with C. trachomatis LGV-L2 434/Bu (the bacteria make the protein and secrete it into the host cytosol); settings: cytosol pre-treated with inhibitor or antibody
Method: as §1, with “FIG. 5 depicts (A) that Polyclonal anti-CPAF antisera blocks proteolysis of chlamydial substrates. Cytosols” for “Cytosols”, “GST-IncC.” for “GST-IncC. Degradation products were visualized by SDS-PAGE followed by staining with Coomassie blue.”
Target sequence in this assay (O84866 276-601): as the sequence (O84866 276-601) above
Target sequence in this assay (O84866 24-234): as the sequence (O84866 24-234) above
Recombinant CPAF was generated using pET30b (Huang et al., Cell Host & Microbe, 4:529-542 (2008). For in vitro cleavage assays, Chlamydia ORFs were expressed in either yeast or E. coli. Crude recombinant proteins were incubated for 30 minutes with cytosol from uninfected or LGV-L2 infected (40 h) HeLa cells, and processing was assessed by SDS-PAGE and immunoblotting using standard techniques. Approximately 8% of the expressed chlamydial proteins were sensitive to degradation after incubation with cytosol derived from infected cells (FIG. 3A). Processing ranged from the generation of distinct cleavage fragments to complete degradation (FIG. 3B). […]

CC(=O)N[C@@H](CSC(=O)[C@]1([C@@H](O)C(C)C)NC(=O)[C@H](C)[C@@H]1O)C(=O)O [lactacystin]
Inhibition of proteolysis by recombinant CPAF (CPAF [1]): inhibited
IC50 (CPAF [2]): 10.2 ± 2.3 µM
Vimentin state in infected HeLa cells treated with lactacystin (CPAF [3]): fiber oligomerization of vimentin
Protection of chlamydial proteins from degradation by cytosols of Chlamydia-infected cells (CPAF [4]): protected from degradation
